Results as given in patent US5571701A, “Antibiotic, balhimycin, a process for its production and its use as pharmaceutical” (priority 1990, dated 1996).
Structures can show the parent of a compound that is named as a salt.

Assays:
[1] = Solubility (physico-chemical properties); type: physicochemical; conditions: as its trifluoroacetate salt; solvents in which soluble
Ps. aeruaingu = assay: Minimum inhibitory concentration (MIC), antibacterial activity; type: cell-based
P. vulaaris = assay: as above; type: cell-based

**Q.** For `CNC(CC(C)C)C(=O)NC1C(=O)NC(CC(N)=O)C(=O)NC2C(=O)NC3C(=O)NC(C(=O)NC(C(=O)O)c4cc(O)cc(O)c4-c4cc3ccc4O)C(OC3C[C@](C)(N)C(=O)C(C)O3)c3ccc(c(Cl)c3)Oc3cc2cc(c3OC2O[C@H](CO)C(O)[C@H](O)C2O)Oc2ccc(cc2Cl)C1O` (stereo partly drawn) [Balhimycin trifluoroacetate, Balhimycin], which Solubility [1] is on record?
**A.** Its Solubility is “Water, dimethylsulfoxide”.

**Q.** And the MIC (Ps. aeruaingu)?
**A.** The MIC was > 100 µg/mL.

**Q.** And the MIC (P. vulaaris)?
**A.** The MIC was > 100 µg/mL.
